Tests used:
[1] = target: T1, recombinant METTL3/METTL14 complex (Homo sapiens, UniProt Q86U44); test: METTL3/14 Scintillation Proximity Assay (SPA), RNA methyltransferase activity; type: biochemical; conditions: 5.31 nM METTL3/14 complex, 250 nM RNA substrate, 1 μM 3H-SAM, 90 min; for compounds marked * best of the two separated forms
T1 construct: purchased Active Motif 311970; host or cells: Sf9 cells

Caov-3 cells = test: Caov-3 cellular viability assay (ATP-Lite, 72 h); type: cell-based; conditions: Homo sapiens, ATP-Lite luminescence, % viability relative to DMSO
In short: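 10000 cells/well treated 72 h at 37 °C, 5% CO2, in RPMI-1640 with 10% FBS and 0.1% DMSO final. Viability by ATP-Lite One Step luminescence. Expressed as % of DMSO control, with IC50 from each compound's concentration-response curve.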

Kasumi-1 cells = test: Kasumi-1 cellular viability assay (ATP-Lite, 72 h); type: cell-based; conditions: Homo sapiens, ATP-Lite luminescence, % viability relative to DMSO
In short: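 Kasumi-1 AML cells, 15000/well in RPMI-1640 with 10% FBS, were exposed to compound titrations (0.1% final DMSO) for 72 h at 37 °C, 5% CO2. ATP-Lite One Step luminescence gave % viability versus DMSO control, and IC50 came from the concentration-response.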

T1 sequence (Q86U44 whole entry): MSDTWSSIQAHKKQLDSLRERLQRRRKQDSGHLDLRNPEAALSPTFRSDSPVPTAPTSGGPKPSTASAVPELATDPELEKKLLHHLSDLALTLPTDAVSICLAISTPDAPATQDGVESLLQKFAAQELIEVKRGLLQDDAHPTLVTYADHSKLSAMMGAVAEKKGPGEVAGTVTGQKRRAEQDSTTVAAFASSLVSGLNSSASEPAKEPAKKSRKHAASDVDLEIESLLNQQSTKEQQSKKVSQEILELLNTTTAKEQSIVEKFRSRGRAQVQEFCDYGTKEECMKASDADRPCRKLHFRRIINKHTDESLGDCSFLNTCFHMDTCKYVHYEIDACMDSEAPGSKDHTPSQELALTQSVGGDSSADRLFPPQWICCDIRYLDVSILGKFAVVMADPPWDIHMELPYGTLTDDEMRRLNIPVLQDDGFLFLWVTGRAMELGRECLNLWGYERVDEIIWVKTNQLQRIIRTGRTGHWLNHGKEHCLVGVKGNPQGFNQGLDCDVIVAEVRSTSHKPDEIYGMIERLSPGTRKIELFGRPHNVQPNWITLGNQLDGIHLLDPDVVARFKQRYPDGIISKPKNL
T1 sequence (Q9HCE5 whole entry partner): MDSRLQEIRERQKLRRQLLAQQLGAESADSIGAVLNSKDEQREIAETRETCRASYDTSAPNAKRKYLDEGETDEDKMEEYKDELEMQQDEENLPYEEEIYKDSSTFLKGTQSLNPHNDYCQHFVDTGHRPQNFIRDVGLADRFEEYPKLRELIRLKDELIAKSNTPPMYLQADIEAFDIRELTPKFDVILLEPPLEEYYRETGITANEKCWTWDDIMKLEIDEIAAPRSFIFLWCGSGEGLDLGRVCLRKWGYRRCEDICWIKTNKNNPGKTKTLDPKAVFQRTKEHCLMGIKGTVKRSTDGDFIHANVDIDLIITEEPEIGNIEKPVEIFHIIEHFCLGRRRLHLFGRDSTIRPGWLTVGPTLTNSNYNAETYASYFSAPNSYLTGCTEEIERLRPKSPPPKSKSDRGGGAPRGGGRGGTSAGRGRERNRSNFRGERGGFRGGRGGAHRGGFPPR

IC50 [1] [nM] | SMILES | IC50 (Caov-3 cells) [nM] | IC50 (Kasumi-1 cells) [nM]
≤ 50 | c1cc(C2(n3cnc(-c4cncc(N5CCCC5)n4)c3)COC2)ncc1N1CCC[C@@H](NCC2CC2)C1 [Compound 250, (R)-N-(cyclopropylmethyl)-1-(6-(3-(4-(6-(pyrrolidin-1-yl)pyrazin-2-yl)-1H-imidazol-1-yl)oxetan-3-yl)pyridin-3-yl)piperidin-3-amine] | ≤ 500 | ≤ 500
≤ 50 | c1ncc(C2CC2)cc1-c1cn(C2(c3ccc(N4CCC[C@@H](NCC5CC5)C4)cn3)COC2)nn1 [Compound 256, (R)-N-(cyclopropylmethyl)-1-(6-(3-(4-(5-cyclopropylpyridin-3-yl)-1H-1,2,3-triazol-1-yl)oxetan-3-yl)pyridin-3-yl)piperidin-3-amine] | ≤ 500 | ≤ 500
≤ 50 | CC(c1ccc(N2CCC[C@@H](NCC3CCC3)C2)nn1)n1cc(-c2cncc(N3CCCC3)c2)nn1 (stereo partly drawn) [Compound 257, (3R)—N-(cyclobutylmethyl)-1-(6-(1-(4-(5-(pyrrolidin-1-yl)pyridin-3-yl)-1H-1,2,3-triazol-1-yl)ethyl)pyridazin-3-yl)piperidin-3-amine] | ≤ 500 | ≤ 500
≤ 50 | O=C(Nc1cncc(N2CCCC2)n1)C1(c2ccc(N3CCC[C@@H](NCC4CCC4)C3)cn2)COC1 [Compound 262, (R)-3-(5-(3-((cyclobutylmethyl)amino)piperidin-1-yl)pyridin-2-yl)-N-(6-(pyrrolidin-1-yl)pyrazin-2-yl)oxetane-3-carboxamide] | ≤ 500 | ≤ 500
≤ 50 | O=C(Nc1cc(=O)n2ccccc2n1)C1(c2ccc(N3CCC[C@@H](NCC45CC(F)(C4)C5)C3)cn2)COC1 [Compound 263, (R)-3-(5-(3-(((3-fluorobicyclo[1.1.1]pentan-1-yl)methyl)amino)piperidin-1-yl)pyridin-2-yl)-N-(4-oxo-4H-pyrido[1,2-a]pyrimidin-2-yl)oxetane-3-carboxamide] | ≤ 500 | ≤ 500
≤ 50 | COc1cncc(-c2cn(C3(c4ccc(N5CCC[C@@H](NCC6CCC6)C5)cn4)COC3)cn2)c1 [Compound 267, (R)-N-(cyclobutylmethyl)-1-(6-(3-(4-(5-methoxypyridin-3-yl)-1H-imidazol-1-yl)oxetan-3-yl)pyridin-3-yl)piperidin-3-amine] | 500 to 5000 | 500 to 5000
≤ 50 | O=C(Nc1cncc(C2CCCC2)n1)C1(c2ccc(N3CCC[C@@H](NCC4CCC4)C3)cn2)COC1 [Compound 268, (R)-3-(5-(3-((cyclobutylmethyl)amino)piperidin-1-yl)pyridin-2-yl)-N-(6-cyclopentylpyrazin-2-yl)oxetane-3-carboxamide] | 500 to 5000 | 500 to 5000
≤ 50 | O=C(Nc1cncc(N2CCCC2)n1)C1(c2ccc(N3CCC[C@@H](NCC45CC(F)(C4)C5)C3)cn2)COC1 [Compound 269, (R)-3-(5-(3-(((3-fluorobicyclo[1.1.1]pentan-1-yl)methyl)amino)piperidin-1-yl)pyridin-2-yl)-N-(6-(pyrrolidin-1-yl)pyrazin-2-yl)oxetane-3-carboxamide] | ≤ 500 | ≤ 500
≤ 50 | O=C(Nc1cncc(N2CC3CC3C2)n1)C1(c2ccc(N3CCC[C@@H](NCC4CCC4)C3)cn2)COC1 (stereo partly drawn) [Compound 270, N-(6-(3-azabicyclo[3.1.0]hexan-3-yl)pyrazin-2-yl)-3-(5-((R)-3-((cyclobutylmethyl)amino)piperidin-1-yl)pyridin-2-yl)oxetane-3-carboxamide] | ≤ 500 | ≤ 500
≤ 50 | CN(CC1CCC1)[C@@H]1CCCN(c2ccc(C3(C(=O)Nc4cc(=O)n5ccccc5n4)COC3)nc2)C1 [Compound 272, (R)-3-(5-(3-((cyclobutylmethyl)(methyl)amino)piperidin-1-yl)pyridin-2-yl)-N-(4-oxo-4H-pyrido[1,2-a]pyrimidin-2-yl)oxetane-3-carboxamide] | 500 to 5000 | 500 to 5000
≤ 50 | COc1cncc(-c2cn(C(C)c3ccc(N4CCC[C@@H](NCC5CCC5)C4)cn3)cn2)c1 (stereo partly drawn) [Compound 276, (3R)—N-(cyclobutylmethyl)-1-(6-(1-(4-(5-methoxypyridin-3-yl)-1H-imidazol-1-yl)ethyl)pyridin-3-yl)piperidin-3-amine] | ≤ 500 | 500 to 5000
≤ 50 | O=C(Nc1cc(=O)n2ccccc2n1)C1(c2ccc(N3CCC[C@@H](NCC4CCC4)C3)cc2)COC1 [Compound 278, (R)-3-(4-(3-((cyclobutylmethyl)amino)piperidin-1-yl)phenyl)-N-(4-oxo-4H-pyrido[1,2-a]pyrimidin-2-yl)oxetane-3-carboxamide] | ≤ 500 | ≤ 500
≤ 50 | CC(C(=O)Nc1cncc(N2CCCC2)n1)c1ccc(N2CCC[C@@H](NCC3CCC3)C2)nn1 (stereo partly drawn) [Compound 279, 2-(6-((R)-3-((cyclobutylmethyl)amino)piperidin-1-yl)pyridazin-3-yl)-N-(6-(pyrrolidin-1-yl)pyrazin-2-yl)propanamide] | 500 to 5000 | 500 to 5000
≤ 50 | CC(c1ccc(N2CCC[C@@H](NCC3CCC3)C2)cn1)n1cc(-c2cncc(N3CCCC3)n2)nn1 (stereo partly drawn) [Compound 280, (3R)—N-(cyclobutylmethyl)-1-(6-(1-(4-(6-(pyrrolidin-1-yl)pyrazin-2-yl)-1H-1,2,3-triazol-1-yl)ethyl)pyridin-3-yl)piperidin-3-amine] | ≤ 500 | ≤ 500
≤ 50 | O=C(Nc1cncc(N2CCCC2)n1)C1(c2ccc(N3CCC[C@@H](NCC4CCC4)C3)cc2)COC1 [Compound 281, (R)-3-(4-(3-((cyclobutylmethyl)amino)piperidin-1-yl)phenyl)-N-(6-(pyrrolidin-1-yl)pyrazin-2-yl)oxetane-3-carboxamide] | ≤ 500 | ≤ 500
≤ 50 | c1cc(Cn2cc(-c3cncc(N4CCCC4)n3)nn2)ncc1N1CCC[C@@H](NCC2CCC2)C1 [Compound 282, (R)-N-(cyclobutylmethyl)-1-(6-((4-(6-(pyrrolidin-1-yl)pyrazin-2-yl)-1H-1,2,3-triazol-1-yl)methyl)pyridin-3-yl)piperidin-3-amine] | ≤ 500 | ≤ 500
≤ 50 | c1cc(C2(n3cc(-c4cncc(C5CC5)n4)nn3)COC2)ncc1N1CCC[C@@H](NCC2CCC2)C1 [Compound 283, (R)-N-(cyclobutylmethyl)-1-(6-(3-(4-(6-cyclopropylpyrazin-2-yl)-1H-1,2,3-triazol-1-yl)oxetan-3-yl)pyridin-3-yl)piperidin-3-amine] | ≤ 500 | ≤ 500
≤ 50 | c1cc(N2CCC[C@@H](NCC3CCC3)C2)ccc1Cn1cc(-c2cncc(N3CCCC3)n2)nn1 [Compound 287, (R)-N-(cyclobutylmethyl)-1-(4-((4-(6-(pyrrolidin-1-yl)pyrazin-2-yl)-1H-1,2,3-triazol-1-yl)methyl)phenyl)piperidin-3-amine] | ≤ 500 | ≤ 500
≤ 50 | c1cc(N2CCC[C@@H](NCC3CCC3)C2)ccc1Cn1cc(-c2cncc(N3CC4CC4C3)n2)nn1 (stereo partly drawn) [Compound 288, (3R)-1-(4-((4-(6-(3-azabicyclo[3.1.0]hexan-3-yl)pyrazin-2-yl)-1H-1,2,3-triazol-1-yl)methyl)phenyl)-N-(cyclobutylmethyl)piperidin-3-amine] | ≤ 500 | ≤ 500
≤ 50 | c1cnn(-c2cncc(-c3cn(C4(c5ccc(N6CCC[C@@H](NCC7CCC7)C6)cn5)COC4)nn3)n2)c1 [Compound 289, (R)-1-(6-(3-(4-(6-(1H-pyrazol-1-yl)pyrazin-2-yl)-1H-1,2,3-triazol-1-yl)oxetan-3-yl)pyridin-3-yl)-N-(cyclobutylmethyl)piperidin-3-amine] | ≤ 500 | ≤ 500
≤ 50 | c1cc(C2(n3cc(-c4cncc(N5CC6CC6C5)n4)nn3)COC2)ncc1N1CCC[C@@H](NCC2CCC2)C1 (stereo partly drawn) [Compound 291, (3R)-1-(6-(3-(4-(6-(3-azabicyclo[3.1.0]hexan-3-yl)pyrazin-2-yl)-1H-1,2,3-triazol-1-yl)oxetan-3-yl)pyridin-3-yl)-N-(cyclobutylmethyl)piperidin-3-amine] | ≤ 500 | ≤ 500
≤ 50 | CC(c1ccc(N2CCC[C@@H](NCC3CCC3)C2)cn1)n1cc(-c2cncc(C3CC3)n2)nn1 (stereo partly drawn) [Compound 292, (3R)—N-(cyclobutylmethyl)-1-(6-(1-(4-(6-cyclopropylpyrazin-2-yl)-1H-1,2,3-triazol-1-yl)ethyl)pyridin-3-yl)piperidin-3-amine] | 500 to 5000 | 500 to 5000
≤ 50 | c1ccn(-c2cncc(-c3cn(C4(c5ccc(N6CCC[C@@H](NCC7CCC7)C6)cn5)COC4)nn3)n2)c1 [Compound 295, (R)-1-(6-(3-(4-(6-(1H-pyrrol-1-yl)pyrazin-2-yl)-1H-1,2,3-triazol-1-yl)oxetan-3-yl)pyridin-3-yl)-N-(cyclobutylmethyl)piperidin-3-amine] | 500 to 5000 | ≤ 500
≤ 50 | O=C(Nc1cnc2ccccc2n1)C1(c2ccc(N3CCC[C@@H](NCC4CCC4)C3)cn2)COC1 [Compound 297, (R)-3-(5-(3-((cyclobutylmethyl)amino)piperidin-1-Yl)pyridin-2-yl)-N-(quinoxalin-2-yl)oxetane-3-carboxamide] | 500 to 5000 | > 5000
